Test results as given in publication PMC10716921 (Frontiers in Pharmacology, 2023).
Read-outs that look alike come from different tables or passages of the source. Values belong to the compound of their own block, whether it stands above or below them.

What was measured:
[1] = tested on: human skin cells, especially keratinocytes; conditions: ref Deptuła et al., 2020; cited from earlier work
From the text: (§1) Platelet-derived growth factor BB (PDGF-BB), one of the first growth factors released into the wound, plays a crucial role in the wound healing process. It is responsible for the formation of granulation tissue, production of extracellular matrix (ECM), takes part in the recruitment of mesenchymal stromal cells (MSCs), and stimulates the proliferation of fibroblasts ([White et al., 2021]). In 1997, the FDA approved human recombinant PDGF-BB in sodium carboxy-methylcellulose (NaCMC) hydrogel (Regranex®) for the treatment of DFUs ([Reyes-Martínez et al., 2019]). However, because of the high cos ...

[2] = tested on: lymphocytes and basophils; conditions: cited from earlier work
From the text: as §1

[3] = tested on: mice; conditions: applied topically in 18% P407 hydrogel, mice model; ref Deptuła et al., 2020; cited from earlier work
From the text: as §1

[4] = tested on: skin cells; conditions: cited from earlier work
From the text: Platelet-derived growth factor BB (PDGF-BB), one of the first growth factors released into the wound, plays a crucial role in the wound healing process. It is responsible for the formation of granulation tissue, production of extracellular matrix (ECM), takes part in the recruitment of mesenchymal stromal cells (MSCs), and stimulates the proliferation of fibroblasts ([White et al., 2021]). In 1997, the FDA approved human recombinant PDGF-BB in sodium carboxy-methylcellulose (NaCMC) hydrogel (Regranex®) for the treatment of DFUs ([Reyes-Martínez et al., 2019]). However, because of the high cos ... || During the development of new biomaterials, it is crucial to analyze not only their physicochemical properties and activity but also their biocompatibility and potential risk to human cells and tissues ([Schmalz and […], 2017]). That is why we decided to evaluate the cytotoxicity of RADA-PDGF2 and its effect on immune cells. Based on our experience and literature data, we know that peptides can be cytotoxic to human cells ([Greco et al., 2020]). […] However, RADA- ...

[5] = tested on: human peripheral blood mononuclear cells (PBMCs); assay: Immunological analysis: activation of immune cells by flow cytometry; format: cell-based
Description: The analysis of the effect on immune cells in vitro was performed with human peripheral blood mononuclear cells (PBMCs) isolated from “buffy coats” using a Ficoll density gradient (Histopaque, Sigma-Aldrich Co.). The procedure was approved by the Independent Bioethics Commission for Research of the Medical University of Gdańsk (NKBBN/387/2014). 100 ul of 1% RADA-PDGF2 was placed in a 24-well plate. Then, culture inserts with a pore diameter of 0.4 μm were placed in the wells, and cells were seeded into them in the amount of 0.5 million cells/0.5 mL RPMI 1640 (P/S, 10% FBS)/well. This was then supplemented with medium alone to a final volume of 1 mL/well. Cells were incubated in standard conditions for 24 h. The negative control was unstimulated cells, grown in the insert, in a well without gels. RADA16-I constituted an additional control. After the incubation, cells were harvested, washed in PBS, counted, and prepared for cytometric analysis. 100,000 cells/100 µL were stained with fluorochrome-conjugated monoclonal antibodies (anti-CD3, anti-CD4, anti-CD8, anti-CD16, anti-CD56, anti-CD25, anti-CD69, anti-CD71, anti-HLA-DR, anti-CD11c, anti-CD80, and anti-CD83). Following 30 min of incubation at room temperature (RT) in the dark, the cells were analyzed using a flow cytometer (LSRFortessa, BD).

[6] = format: physicochemical
Description: Blood samples provided by healthy volunteers were processed with lithium/heparin tubes to eliminate clots by centrifugation. Plasma aliquots were mixed with RADA-PDGF2 peptide for 24 h at 37°C, using a plasma to peptide volume ratio of (4:1% v/v), to obtain final concentration 2.69 µM of RADA-PDGF2 peptide.). Samples were collected at six time points (0, 1, 2, 3, 6, and 24 h) to assess water and plasma stability. The collected samples were then prepared and analyzed according to the protocol described earlier ([Dzierżyńska et al., 2023]).

[7] = tested on: dermal fibroblast, 46BR.1N fibroblast, and HaCaT keratinocytes; format: cell-based, human
Description: Cell viability of dermal fibroblast, 46BR.1N fibroblast, and HaCaT keratinocytes was analyzed after 4 days of cell culture on RADA-PDGF2 hydrogel. RADA-PDGF2 was dissolved in water at a concentration of 1% w/v and placed in the inserts (0.4 µm) located in a 24-well plate. The whole was incubated for at least 1 hour at 37°C to allow gelation. Then, twice the volume of DMEM HG medium was added to the gel and left overnight in the incubator. The cells were trypsinized, centrifuge and then seeded on a gel at 50,000 per insert in DMEM HG medium with 2% FBS and 1% P/S. The medium was changed to DMEM HG with 2% FBS and 1% P/S after 2 days of incubation. After 4 days of incubation to assess viability, cells were stained with Calcein-AM (c = 8 µM) and propidium iodide (2 μg/mL) for 30 min and then analyzed by confocal microscopy with the use of Nikon Eclipse Ti-e Confocal Microscope.

[8] = in vivo, iv; cited from earlier work
From the text: as §1

[9] = tested on: human neutrophil elastase; assay: human neutrophil elastase enzyme (EC No. 3.4.21.37, Sigma Aldrich, USA) in 25 mM Tris HCl buffer, pH 7.5; conditions: 37°C, up to 30 min
[10] = previous stability studies; ref Dzierżyńska et al., 2023; cited from earlier work

Compound: RLIDRTNANFL [PDGF2, peptide … derived from PDGF-BB]
pro-proliferative properties [1]: strong pro-proliferative properties
immunogenicity in vitro [2]: negligible lymphocyte and basophil activation
effect on wound healing [3]: accelerates wound healing
cytotoxicity [4]: minimal cytotoxicity

Compound: PDGF-BB: Platelet-derived growth factor BB
half-life [8]: a few minutes

Compound: Ac-(RADA)4GGGAAPVGGGRLIDRTNANFL-NH2
cleaved bond [9]: V23-G24, major

More lines, main results first:

CD11c+CD83+ active DCs population compared to untreated control [5]: statistically significant increase
NK cells: expression of CD25 [5]: slight increase
NK cells: expression of CD71 [5]: reduction
NK cells: statistical significance of change in activation markers [5]: no statistical significance was noted
overall immunological assessment [5]: safe in an immunological context
time over which the peptide exhibited chemical stability in aqueous solution [6]: 24 h
Compound: CC[C@H](C)[C@H](NC(=O)[C@H](CC(C)C)NC(=O)[C@H](CCCNC(=N)N)NC(=O)CNC(=O)CNC(=O)CNC(=O)[C@@H](NC(=O)[C@@H]1CCCN1C(=O)[C@H](C)NC(=O)[C@H](C)NC(=O)CNC(=O)CNC(=O)CNC(=O)[C@H](C)NC(=O)[C@H](CC(=O)O)NC(=O)[C@H](C)NC(=O)[C@H](CCCNC(=N)N)NC(=O)[C@H](C)NC(=O)[C@H](CC(=O)O)NC(=O)[C@H](C)NC(=O)[C@H](CCCNC(=N)N)NC(=O)[C@H](C)NC(=O)[C@H](CC(=O)O)NC(=O)[C@H](C)NC(=O)[C@H](CCCNC(=N)N)NC(=O)[C@H](C)NC(=O)[C@H](CC(=O)O)NC(=O)[C@H](C)NC(=O)[C@H](CCCNC(=N)N)NC(C)=O)C(C)C)C(=O)N[C@@H](CC(=O)O)C(=O)N[C@@H](CCCNC(=N)N)C(=O)N[C@H](C(=O)N[C@@H](CC(N)=O)C(=O)N[C@@H](C)C(=O)N[C@@H](CC(N)=O)C(=O)N[C@@H](Cc1ccccc1)C(=O)N[C@@H](CC(C)C)C(N)=O)[C@@H](C)O [RADA-PDGF2]
Th cells: expression of activation markers versus unstimulated cells [5]: any statistically significant differences between unstimulated cells and cells stimulated with RADA-PDGF2 were not observed
cytotoxic lymphocytes (CTL): expression of CD69 marker [5]: increased expression
skin cell viability on hydrogel [7]: remained viable

overall immunological assessment ([5]; PBMCs, 24 h, due to the low values of the changes): safe in an immunological context
Compound: CC(=O)N[C@@H](CCCNC(=N)N)C(=O)N[C@@H](C)C(=O)N[C@@H](CC(=O)O)C(=O)N[C@@H](C)C(=O)N[C@@H](CCCNC(=N)N)C(=O)N[C@@H](C)C(=O)N[C@@H](CC(=O)O)C(=O)N[C@@H](C)C(=O)N[C@@H](CCCNC(=N)N)C(=O)N[C@@H](C)C(=O)N[C@@H](CC(=O)O)C(=O)N[C@@H](C)C(=O)N[C@@H](CCCNC(=N)N)C(=O)N[C@@H](C)C(=O)N[C@@H](CC(=O)O)C(=O)N[C@@H](C)C(N)=O [RADA16-I, reference compound]
presence of peptide in plasma [10]: did not show prolonged presence of peptide in plasma
